Results published in US7863247B1, “Prevention of fetal alcohol syndrome and neuronal cell death with ADNF polypeptides” (Ramot-University Authority for Applied Research and …, priority 2000, dated 2011).
No end group written: not given here.

What was measured:
[1] = test system: C57-B16J mice exposed to alcohol in utero; test: Fetal death (% demises at E18) in the FAS model; assay type: in vivo; details: pretreatment 30 min prior to alcohol on E8 (NAP 20 μg; NAP 20 μg+SAL 20 μg; VIP 1 μg); counted at E18
Method: (§1) A published well-delineated model for FAS was followed (Webster et al., Neurobehav Tox, 2:227-34 (1980)). Animals were injected (intraperitoneal) on E8 with 25% ethyl alcohol in saline (v/v) or vehicle alone at 0.030 ml/g body weight at 0900 on E8. Pretreatment with VIP and ADNF polypeptides (e.g., NAP, SAL, NAP+SAL) were given 30 min prior to alcohol. Post-treatment with NAP+SAL was given at 1 or 3 h after alcohol. Dosages of the neuropeptides were NAP (20 μg and 40 μg), SAL (20 μg), NAP (20 μg)+SAL (20 μg); VIP (1 μg). NAP+SAL without alcohol was also studied. NAP was diluted in 50 μl DMSO and diluted in filtered Dulbecco's phosphate buffered saline (DPBS). SAL was dissolved and diluted in filtered DPBS. VIP was dissolved in 20 μl glacial acetic acid and diluted in HPLC water and DPBS. […]
(§2) At E18 (embryonic gestation day 18), the number of live and demised fetuses was determined. […] The mean fetal weights were determined for each mother, and this was used for statistical analysis.
(§3) The mean litter pup and fetal brain weight was calculated, with the litter mean used for all statistical analysis. Percent demises were calculated by dividing the number of demises by the total number of fetuses (live plus demises). […]

[2] = test system: C57-B16J mice exposed to alcohol in utero; test: Fetal weights at E18 in the FAS model; assay type: in vivo
Method: A published well-delineated model for FAS was followed (Webster et al., Neurobehav Tox, 2:227-34 (1980)). Animals were injected (intraperitoneal) on E8 with 25% ethyl alcohol in saline (v/v) or vehicle alone at 0.030 ml/g body weight at 0900 on E8. Pretreatment with VIP and ADNF polypeptides (e.g., NAP, SAL, NAP+SAL) were given 30 min prior to alcohol. Post-treatment with NAP+SAL was given at 1 or 3 h after alcohol. Dosages of the neuropeptides were NAP (20 μg and 40 μg), SAL (20 μg), NAP (20 μg)+SAL (20 μg); VIP (1 μg). NAP+SAL without alcohol was also studied. NAP was diluted in 50 μl DMSO and diluted in filtered Dulbecco's phosphate buffered saline (DPBS). SAL was dissolved and diluted in filtered DPBS. VIP was dissolved in 20 μl glacial acetic acid and diluted in HPLC water and DPBS. Since the animals receiving alcohol were incapacitated for approximately 6 hours following injection, food and water were withheld from all groups for the initial 6 hours, to allow accurate assessment of fetal weights.
At E18 (embryonic gestation day 18), the number of live and demised fetuses was determined. Fetal weights and fetal brain weights were obtained for each fetus in the litter. The mean fetal weights were determined for each mother, and this was used for statistical analysis.
The mean litter pup and fetal brain weight was calculated, with the litter mean used for all statistical analysis. Percent demises were calculated by dividing the number of demises by the total number of fetuses (live plus demises). Statistical analysis included ANOVA for continuous variables, Mann-Whitney U for nonparametic data, Chi square for categorical variables or Fisher's exact test where appropriate [Statview 4.5 (Abacus Concepts, Inc., Berkeley, Calif.)] with p<0.05 considered significant. Results are presented as mean±standard error unless specified.

[3] = test system: C57-B16J mice exposed to alcohol in utero; test: Fetal brain weights at E18 in the FAS model; assay type: in vivo; details: pretreatment 30 min prior to alcohol on E8 (SAL 20 μg; NAP 20 μg+SAL 20 μg)
Method: as §1, §2, §3

[4] = Bioavailability of 3H-NAP to embryos (size exclusion chromatography); assay type: in vivo, mice
Method: FIG. 7a and FIG. 7b illustrate chromatographs of radiolabel (^3H) present in 1 ml fractions from a size exclusion column (Superdex Peptide HR 10/30, Pharmacia Biotech). ^3H-NAP (2 μCi/20 μg) was administered intraperitoneally to pregnant mice at E8. Intact NAP was present in fractions 15-17 denoted by shaded grey bar on graphs. FIG. 7a illustrates a pooled sample of three embryos (different litters) after a thirty minute exposure to ^3H-NAP. Based on this accumulation of labeled peptide, approximately 1 pmoles of NAP was found in the embryo, with an estimated concentration of 10 nM, well within the therapeutic range of NAP. FIG. 7b illustrates a pooled sample of three embryos (different litters) after a sixty minute exposure to ^3H-NAP.
The bioavailability of NAP to embryos was assessed by intraperitoneal administration of ^3H-NAP (2 μCi/20 μg) to pregnant mice at E8. […] Based on this accumulation of labeled peptide, approximately […] of NAP was found in the embryo, with an estimated concentration of 10 nM, well within the therapeutic range of NAP.

[5] = pretreatment 30 min prior to alcohol on E8 (NAP 20 μg; SAL 20 μg; NAP 20 μg+SAL 20 μg; VIP 1 μg)

Row | Substance | percentage of fetal demises [1] | fetal weights (alcohol-induced growth restriction) [2, 5] | fetal brain weights (alcohol-induced microcephaly) [3] | fetal weights (alcohol-induced growth restriction) ([2]; pretreatment with a double dosage of NAP (40 μg)) | estimated concentration of NAP in the embryo ([4]; 3H-NAP 2 μCi/20 μg intraperitoneal at E8, 30 min) [nM] | radioactivity recovered in the embryo co-migrating with intact NAP ([4]; 3H-NAP 2 μCi/20 μg intraperitoneal to pregnant mice at E8, 30 min after administration) [%]
1 | vasoactive intestinal peptide (HSDAVFTDNYTRLRKQMAVKKYLNSILN; ends and bridges not checked; UniProt P01282 125-152, looked up) [VIP, neuropeptide that is a regulator of early postimplantation mouse embryonic growth, reference compound] | did not reverse the fetal death rate | improved embryonic weights; however, the effect was intermediate and not statistically significant | – | – | – | –
2 | SALLRSIPA | – | did not prevent the alcohol-induced fetal weight reduction | moderately prevented the alcohol-induced fetal brain weight reduction | – | – | –
3 | Asn-Ala-Pro-Val-Ser-Ile-Pro-Gln [NAP] | prevented the death seen with alcohol | moderately prevented the alcohol-induced growth restrictions | – | moderately prevented the alcohol-induced growth restriction | ~10 | 60
